From patent publication US7084155B2, “Chemokine receptor binding heterocyclic compounds” (AnorMED, priority 2000, dated 2006)

Columns and labels:
Format in all cases: cell-based
[1] = system: SDF-1 induced Ca flux in SUP-T1 cells; assay: Inhibition of chemokine (SDF-1) induced Ca flux measured on a FLIPR; settings: Homo sapiens
Method: Inhibition of Chemokine Induced Ca Flux Measured on a FLIPR (Molecular Devices) Loading dye: Fluo-3, AM (Molecular Probes F-1241) is dissolved in anhydrous DMSO and stored frozen in aliquots. To increase the solubility of the dye in the loading medium, 10% (w/v) pluronic acid (Molecular Probes F-127) is added to the Fluo-3 stock solution immediately before use. HBSS+20 mM Hepes buffer+0.2% BSA, pH 7.4. HBSS 10× [(w/o phenol red and sodium bicarbonate (Gibco 14 065–049)]; Hepes buffer 1M (Gibco 15 630–056), BSA (Sigma A3675). The flux buffer is vacuum-filtered and stored refrigerated for a maximum of 5 days. Before use in the experiment, the buffer is warmed at 37° C. in a waterbath. The test compounds were diluted in flux buffer to the desired concentration and added to 4 wells of a black microplate (4 parallel measurements per compound). The following control wells were used: 100% response control (no inhibition), flux buffer was added; 100% inhibition control: chemokine was added at 5-times the concentration required to induce a Ca flux. The chemokines are diluted in flux buffer to concentrations that are 4-fold higher than the desired concentrations required for stimulation of the cells (i.e. 2.5 nM for SDF-1[…] and 0.6 nM for RANTES). The chemokines were added to untreated 96-well Sero well compound plates (International Medical, Sterilin code 611F96). In the negative control well's (baseline monitoring), flux buffer is added instead of chemokine. As a positive control to check for dye loading efficiency, 20 μM digitonin (final concentration) was also included. The agonist plate was incubated in the FLIPR (37° C.) for 15–30 min. Cell Loading Protocol for Measuring Inhibition of SDF-1[…] Induced Ca Flux in SUP-T1 Cells. SUP-T1 cells were centrifuged at room temperature (RT) and re-suspended in loading medium (RPMI-1640 containing 2% FBS and 4 μM Fluo-3, AM). The cells were incubate at room temperature for 45 min. then washed twice in flux buffer then incubated in flux buffer at room temperature for 10 min. The cells were centrifuged and re-suspended in flux buffer at a density of 3×10^6 cells per mL. A 100 uL aliquot of the cell suspension (3×10^5 cells) was added to each well of a black microplate (Costar 3603), which already contains 50 uL of a solution of the test compound (at concentrations that are 3-fold higher than the desired final compound concentrations). The microplate is then gently centrifuged at room temperature. Homogeneous spreading of the cells on the bottom of the microplate wells was then confirmed with a microscope and the microplate was incubated in the FLIPR (37° C.) for 10 min. prior to testing. Fluorescence Measurements as a Function of Time on the FLIPR The FLIPR settings (camera exposure time and laser power) are adjusted to obtain initial fluorescence values between 8,000 and 10,000 units. After monitoring a 20 second-baseline, the agonist (chemokine) (50 uL) is added by automatic pipettor with black pipette tips. Fluorescence is measured simultaneously in all wells of the microplate every 2 seconds (first 2 min) and thereafter every 6 seconds (additional 2 min). The average ca-flux measured in each set of 4 identical wells (one test compound) was calculated by the FLIPR software.

HIV-1 NL4.3 or IIIB = assay: Inhibition of HIV-1 (NL4.3 or IIIB, CXCR4 using) replication in MT-4 cells, MTT viability; settings: Human immunodeficiency virus 1, IIIB, MT4, concentration protecting 50% of virus-infected cells against viral cytopathicity
Method: Assay for Inhibition of HIV-1 (NL4.3) Replication in MT-4 Cells Inhibition of HIV-1 NL4.3 (or IIIB, CXCR4 using) replication assays were performed as previously described (Bridger et al. J. Med. Chem. 1999, 42, 3971-3981; De […] et al. Proc. Natl. Acad. Sci, 1992, 89, 5286-5290; De […] et al. Antimicrob. Agents Chemother. 1994, 38, 668-674; Bridger et al. J. Med. Chem. 1995, 38, 366-378; Schols et al. J. Exp. Med., 1997, 186, 1383-1388). Anti-HIV activity and cytotoxicity measurements were carried out in parallel. They were based on the viability of MT-4 cells that had been infected with HIV in the presence of various concentrations of the test compounds. After the MT-4 cells were allowed to proliferate for 5 days, the number of viable cells was quantified by a tetrazolium-based colorimetric 3-(4,5-dimethylthiazol-2-yl)-2,5-diphenyltetrazolium bromide (MTT) procedure in 96-well microtrays. In all of these assays, viral input (viral multiplicity of infection, MOI) was 0.01, or 100 times the 50% cell culture infective dose (CCID50). The EC50 was defined as the concentration required to protect 50% of the virus-infected cells against viral cytopathicity.

HIV-1 BaL = assay: Inhibition of HIV-1 BaL (CCR5 using) replication in PHA-stimulated PBMC's, viral p24 antigen expression; settings: Human immunodeficiency virus 1, BAL

| Structure (SMILES) | EC50 (HIV-1 NL4.3 or IIIB) [µg/mL] | EC50 (HIV-1 BaL) [µg/mL] | inhibition at 20 µg/mL [1] [%] |
| --- | --- | --- | --- |
| Cc1cc2nc(CN(Cc3ccc(CNCc4ccccn4)cc3)C3CCCc4cccnc43)[nH]c2cc1C (stereo not drawn) [Example 2, N-(2-pyridinylmethyl)-N′-(5,6-dimethyl-1-H-benzimidazol-2-ylmethyl)-N′-(5,6,7,8-tetrahydro-8-quinolinyl)-1,4-benzenedimethanamine] | < 20 | < 20 | > 20 |
| FC(F)(F)c1c[nH]c(CN(Cc2ccc(CNCc3ccccn3)cc2)C2CCCc3cccnc32)n1 (stereo not drawn) [Example 35, N-(2-pyridinylmethyl)-N′-(4-trifluormethyl-1H-imidazol-2-ylmethyl)-N′-(5,6,7,8-tetrahydro-8-quinolinyl)-1,4-benzenedimethanamine] | < 20 | < 20 | > 20 |
| CCCCc1ccc(CNCc2ccc(CN(Cc3nc4ccccc4[nH]3)C3CCCc4cccnc43)cc2)nc1 (stereo not drawn) [Example 54, N-(5-butyl-2-pyridinylmethyl)-N′-(1H-benzimidazol-2-ylmethyl)-N′-(5,6,7,8-tetrahydro-8-quinolinyl)-1,4-benzenedimethanamine] | < 20 | < 20 | > 20 |
| Oc1cccnc1CNCc1ccc(CN(Cc2nc3ccccc3[nH]2)C2CCCc3cccnc32)cc1 (stereo not drawn) [Example 55, N-(3-hydroxy-2-pyridinylmethyl)-N′-(1H-benzimidazol-2-ylmethyl)-N′-(5,6,7,8-tetrahydro-8-quinolinyl)-1,4-benzenedimethanamine] | < 20 | < 20 | > 20 |
| Cc1cc(C)nc(CNCc2ccc(CN(Cc3nc4ccccc4[nH]3)C3CCCc4cccnc43)cc2)c1 (stereo not drawn) [Example 61, N-(4,6-dimethyl-2-pyridinylmethyl)-N′-(1H-benzimidazol-2-ylmethyl)-N′-(5,6,7,8-tetrahydro-8-quinolinyl)-1,4-benzenedimethanamine] | < 20 | < 20 | > 20 |
| Cc1cc(CNCc2ccc(CN(Cc3nc4ccccc4[nH]3)C3CCCc4cccnc43)cc2)cc(C)n1 (stereo not drawn) [Example 62, N-(2,6-dimethyl-4-pyridinylmethyl)-N′-(1H-benzimidazol-2-ylmethyl)-N′-(5,6,7,8-tetrahydro-8-quinolinyl)-1,4-benzenedimethanamine] | < 20 | < 20 | > 20 |
| COc1cc(CNCc2ccc(CN(Cc3nc4ccccc4[nH]3)C3CCCc4cccnc43)cc2)nc2ccccc12 (stereo not drawn) [Example 64, N-(4-methoxy-2-quinolinylmethyl)-N′-(1H-benzimidazol-2-ylmethyl)-N′-(5,6,7,8-tetrahydro-8-quinolinyl)-1,4-benzenedimethanamine] | < 20 | < 20 | > 20 |
| CC(NCc1ccc(CN(Cc2nc3ccccc3[nH]2)C2CCCc3cccnc32)cc1)c1ccccn1 (stereo not drawn) [Example 66, N-[1-(2-pyridinyl)eth-1-yl]-N′-(1H-benzimidazol-2-ylmethyl)-N′-(5,6,7,8-tetrahydro-8-quinolinyl)-1,4-benzenedimethanamine] | < 20 | < 20 | > 20 |

Second part, led by results:

| EC50 (HIV-1 NL4.3 or IIIB) [µg/mL] | EC50 (HIV-1 BaL) [µg/mL] | Structure (SMILES) | inhibition at 20 µg/mL [1] [%] |
| --- | --- | --- | --- |
| < 20 | < 20 | FC(F)(F)c1ccc2nc(CN(Cc3ccc(CNCc4ccccn4)cc3)C3CCCc4cccnc43)[nH]c2c1 (stereo not drawn) [Example 1, N-(2-pyridinylmethyl)-N′-(5-trifluoromethyl-1-H-benzimidazol-2-ylmethyl)-N′-(5,6,7,8-tetrahydro-8-quinolinyl)-1,4-benzenedimethanamine] | > 20 |
| < 20 | < 20 | COc1cccc2[nH]c(CN(Cc3ccc(CNCc4ccccn4)cc3)C3CCCc4cccnc43)nc12 (stereo not drawn) [Example 13, N-(2-pyridinylmethyl)-N′-[4-methoxy-1H-benzimidazol-2-ylmethyl]-N′-(5,6,7,8-tetrahydro-8-quinolinyl)-1,4-benzenedimethanamine] | > 20 |
| < 20 | < 20 | c1ccc(-c2cccc3nc(CN(Cc4ccc(CNCc5ccccn5)cc4)C4CCCc5cccnc54)[nH]c23)cc1 (stereo not drawn) [Example 14, N-(2-pyridinylmethyl)-N′-[4-phenyl-1H-benzimidazol-2-ylmethyl]-N′-(5,6,7,8-tetrahydro-8-quinolinyl)-1,4-benzenedimethanamine] | > 20 |
| < 20 | < 20 | c1ccc(-c2cnc(CN(Cc3ccc(CNCc4ccccn4)cc3)C3CCCc4cccnc43)[nH]2)cc1 (stereo not drawn) [Example 25, N-(2-pyridinylmethyl)-N′-(4-Phenyl-1H-imidazol-2-ylmethyl)-N′-(5,6,7,8-tetrahydro-8-quinolinyl)-1,4-benzenedimethanamine] | > 20 |
| < 20 | < 20 | O=[N+]([O-])c1ccc(-c2cnc(CN(Cc3ccc(CNCc4ccccn4)cc3)C3CCCc4cccnc43)[nH]2)cc1 (stereo not drawn) [Example 27, N-(2-pyridinylmethyl)-N′-[4-(4-nitrophenyl)-1H-imidazol-2-ylmethyl]-N′-(5,6,7,8-tetrahydro-8-quinolinyl)-1,4-benzenedimethanamine] | > 20 |
| < 20 | < 20 | Cc1nc(CN(Cc2ccc(CNCc3ccccn3)cc2)C2CCCc3cccnc32)[nH]c1-c1ccccc1 (stereo not drawn) [Example 28, N-(2-Pyridinylmethyl)-N′-(4-methyl-5-phenyl-1H-imidazol-2-ylmethyl)-N′-(5,6,7,8-tetrahydro-8-quinolinyl)-1,4-benzenedimethanamine] | > 20 |
| < 20 | < 20 | CC(C)(C)c1cnc(CN(Cc2ccc(CNCc3ccccn3)cc2)C2CCCc3cccnc32)[nH]1 (stereo not drawn) [Example 29, N-(2-Pyridinylmethyl)-N′-(5-tert-butyl-1H-imidazol-2-ylmethyl)-N′-(5,6,7,8-tetrahydro-8-quinolinyl)-1,4-benzenedimethanamine] | > 20 |
| < 20 | < 20 | COc1cccc(-c2cnc(CN(Cc3ccc(CNCc4ccccn4)cc3)C3CCCc4cccnc43)[nH]2)c1 (stereo not drawn) [Example 30, N-(2-Pyridinylmethyl)-N′-[5-(3-methoxyphenyl)-1H-imidazol-2-ylmethyl]-N′-(5,6,7,8-tetrahydro-8-quinolinyl)-1,4-benzenedimethanamine] | > 20 |
| < 20 | < 20 | c1cnc2c(c1)CCCC2N(Cc1ccc(CNCc2cc3ccccc3cn2)cc1)Cc1nc2ccccc2[nH]1 (stereo not drawn) [Example 63, N-(3-isoquinolinylmethyl)-N′-(1H-benzimidazol-2-ylmethyl)-N′-(5,6,7,8-tetrahydro-8-quinolinyl)-1,4-benzenedimethanamine] | > 20 |
| < 20 | < 20 | c1ccc(CNCc2ccc(CN(CCNCc3nc4ccccc4[nH]3)C3CCCc4cccnc43)cc2)nc1 (stereo not drawn) [Example 67, N-(2-pyridinylmethyl)-N′-[2-[(1H-benzimidazol-2-ylmethyl)amino]ethyl]-N′-(5,6,7,8-tetrahydro-8-quinolinyl)-1,4-benzenedimethanamine] | > 20 |
